The nature of data set [1]: AUC (0 to t) in male BALB/c mouse at 10 mg/kg, po single administration measured upto 72 hrs by LC-MS/MS analysis. The settings on record: in vivo. It counts as ADME, organism-based.
Data set [2] is described as follows: Clearance in male BALB/c mouse at 10 mg/kg, po single administration measured upto 72 hrs by LC-MS/MS analysis. It counts as ADME, organism-based. The conditions noted are these: in vivo.
For data set [3], the system named is HEK293. Description: Cytotoxicity against HEK293 cells expressing mouse P2X7 receptor assessed as cell viability upto 2 uM measured after 24 hrs incubation by CCK8 assay. It counts as toxicity, cell-based. The settings on record: human, hek293, 24 h. For orientation: Formazan colour is commonly taken as a measure of viable cells.
In data set [4] the test system is HEK293. Description: Cytotoxicity against HEK293 cells expressing human P2X7 receptor assessed as cell viability upto 2 uM measured after 24 hrs incubation by CCK8 assay. Format: toxicity, cell-based. The conditions noted are these: hek293, 24 h.
Data set [5] can be described thus: Metabolic stability in mouse liver microsomes assessed as half life. Format: ADME, Microsome. (In general: Liver microsomes are vesicles of endoplasmic reticulum, rich in cytochrome P450 enzymes.)
Data set [6] in a line: Cmax in male BALB/c mouse at 10 mg/kg, po single administration measured upto 72 hrs by LC-MS/MS analysis. The conditions noted are these: in vivo. Format: ADME, organism-based.
Data set [7] in a line: Metabolic stability in mouse liver microsomes assessed as clearance. Format: ADME, Microsome. The conditions noted are these: read-out: CLH.
Data set [8] in a line: Half life in male BALB/c mouse at 10 mg/kg, po single administration measured upto 72 hrs by LC-MS/MS analysis. It counts as ADME, organism-based. The settings on record: in vivo.
Data set [9] can be described thus: Metabolic stability in human liver microsomes assessed as half life. It counts as ADME, Microsome.
Data set [10] in a line: Metabolic stability in human liver microsomes assessed as clearance. It counts as ADME, Microsome. The conditions noted are these: read-out: CLH.
A short description of data set [11]: Tmax in male BALB/c mouse at 10 mg/kg, po single administration measured upto 72 hrs by LC-MS/MS analysis. Format: ADME, organism-based. The conditions noted are these: in vivo.
A further data set concerns the target T1, P2X purinoceptor 7 (Mus musculus, UniProt Q9Z1M0).
T1 sequence (Q9Z1M0 whole entry): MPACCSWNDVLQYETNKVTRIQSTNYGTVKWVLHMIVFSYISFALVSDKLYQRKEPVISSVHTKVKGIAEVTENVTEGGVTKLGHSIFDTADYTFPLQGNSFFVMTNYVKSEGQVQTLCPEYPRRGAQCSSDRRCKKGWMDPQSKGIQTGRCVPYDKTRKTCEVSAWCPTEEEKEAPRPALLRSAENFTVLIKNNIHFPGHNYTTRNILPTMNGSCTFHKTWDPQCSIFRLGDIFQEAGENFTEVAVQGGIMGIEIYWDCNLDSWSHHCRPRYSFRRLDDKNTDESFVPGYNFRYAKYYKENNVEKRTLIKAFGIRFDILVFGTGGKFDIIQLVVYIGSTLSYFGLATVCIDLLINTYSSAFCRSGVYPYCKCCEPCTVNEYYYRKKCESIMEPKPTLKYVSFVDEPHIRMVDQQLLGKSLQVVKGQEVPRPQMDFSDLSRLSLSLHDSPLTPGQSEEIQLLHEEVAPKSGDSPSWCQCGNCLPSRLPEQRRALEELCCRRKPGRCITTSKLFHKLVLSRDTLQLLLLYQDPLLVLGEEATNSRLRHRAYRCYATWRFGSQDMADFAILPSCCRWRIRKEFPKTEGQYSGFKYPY
Description: Antagonist activity against mouse P2X7 receptor expressed in ATP-stimulated HEK293 cells assessed as influx of PI by fluorescence dye uptake assay relative to control. It counts as cell-based.

A short description of data set [12]: Toxicity in female C57BL/6 mouse assessed as decrease in body weight at 2 g/Kg measured for 2 to 6 days. The settings on record: in vivo, 2000 mg/kg, time 2-6 day.
Data set [13] is described as follows: Stability in Balb/c mouse plasma measured upto 8 hrs. It counts as ADME, cell-free.
Data set [14] is described as follows: Toxicity in C57BL/6 mouse assessed as change in body weight at 2 g/Kg measured for 14 days. The conditions noted are these: in vivo, 2000 mg/kg, 336 h, time 14 day.
The target in a further data set is CYP3A4 (Homo sapiens, UniProt P08684). Description: Inhibition of CYP3A4 in human liver microsomes assessed as compound remaining at 1 uM measured after 2 hrs incubation by LC-MS/MS analysis. It counts as ADME, Microsome. The conditions noted are these: read-out: Activity.
For a further data set, the target named is CYP2C19 (Homo sapiens, UniProt P33261). The data set can be described thus: Inhibition of CYP2C19 in human liver microsomes assessed as compound remaining at 1 uM measured after 2 hrs incubation by LC-MS/MS analysis. It counts as ADME, Microsome. The conditions noted are these: read-out: Activity.
Another data set concerns the target CYP2C9 (Homo sapiens, UniProt P11712). The data set can be described thus: Inhibition of CYP2C9 in human liver microsomes assessed as compound remaining at 1 uM measured after 2 hrs incubation by LC-MS/MS analysis. Format: ADME, Microsome. The settings on record: read-out: Activity.
Data set [15] can be described thus: Plasma protein binding in plasma (unknown origin) at 10 uM measured after 6 hrs incubation by LC-MS/MS analysis. It counts as ADME, cell-free. The settings on record: read-out: PPB (converted).
In a further data set the target is T2, CYP1A2 (Homo sapiens, UniProt P05177).
T2 sequence (P05177 whole entry): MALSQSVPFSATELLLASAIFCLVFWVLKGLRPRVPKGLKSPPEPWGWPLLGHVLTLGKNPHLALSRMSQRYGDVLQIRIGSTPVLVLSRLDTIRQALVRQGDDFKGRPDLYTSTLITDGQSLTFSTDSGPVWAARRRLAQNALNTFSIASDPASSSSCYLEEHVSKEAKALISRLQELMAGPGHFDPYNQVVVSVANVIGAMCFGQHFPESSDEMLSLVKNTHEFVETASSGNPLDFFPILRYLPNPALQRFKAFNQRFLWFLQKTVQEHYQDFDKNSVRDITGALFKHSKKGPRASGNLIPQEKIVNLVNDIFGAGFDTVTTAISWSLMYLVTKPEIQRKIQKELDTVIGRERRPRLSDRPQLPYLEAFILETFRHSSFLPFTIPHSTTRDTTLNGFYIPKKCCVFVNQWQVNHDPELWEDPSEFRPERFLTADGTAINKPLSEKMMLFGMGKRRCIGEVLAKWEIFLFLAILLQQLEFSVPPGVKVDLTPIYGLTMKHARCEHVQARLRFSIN
The data set can be described thus: Inhibition of CYP1A2 in human liver microsomes assessed as compound remaining at 1 uM measured after 2 hrs incubation by LC-MS/MS analysis. Format: ADME, Microsome. The settings on record: read-out: Activity.

In data set [16] the target is Voltage-gated inwardly rectifying potassium channel KCNH2 (Homo sapiens, UniProt Q12809). The data set can be described thus: Inhibition of hERG. Format: toxicity.
The target of another data set is CYP2D6 (Homo sapiens, UniProt P10635). The data set can be described thus: Inhibition of CYP2D6 in human liver microsomes assessed as compound remaining at 1 uM measured after 2 hrs incubation by LC-MS/MS analysis. It counts as ADME, Microsome. The conditions noted are these: read-out: Activity.
The next data set addresses CYP2E1 (Homo sapiens, UniProt P05181). Description: Inhibition of CYP2E1 in human liver microsomes assessed as compound remaining at 1 uM measured after 2 hrs incubation by LC-MS/MS analysis. It counts as ADME, Microsome. The conditions noted are these: read-out: Activity.
The target in a further data set is T3, CYP2A6 (Homo sapiens, UniProt P11509).
T3 sequence (P11509 whole entry): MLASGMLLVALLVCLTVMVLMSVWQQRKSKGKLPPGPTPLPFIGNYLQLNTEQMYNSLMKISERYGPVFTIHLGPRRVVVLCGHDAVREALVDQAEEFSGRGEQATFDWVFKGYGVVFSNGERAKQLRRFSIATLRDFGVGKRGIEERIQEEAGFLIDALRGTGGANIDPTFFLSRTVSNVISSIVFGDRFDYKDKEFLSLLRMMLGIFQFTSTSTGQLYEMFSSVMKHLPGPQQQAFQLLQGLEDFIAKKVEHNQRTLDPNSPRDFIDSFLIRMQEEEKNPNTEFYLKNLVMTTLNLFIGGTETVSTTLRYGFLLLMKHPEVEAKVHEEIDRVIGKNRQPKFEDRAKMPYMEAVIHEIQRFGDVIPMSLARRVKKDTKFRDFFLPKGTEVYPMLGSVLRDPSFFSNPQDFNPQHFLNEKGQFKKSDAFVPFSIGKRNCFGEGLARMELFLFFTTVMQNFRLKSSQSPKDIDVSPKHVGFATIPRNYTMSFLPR
The data set can be described thus: Inhibition of CYP2A6 in human liver microsomes assessed as compound remaining at 1 uM measured after 2 hrs incubation by LC-MS/MS analysis. It counts as ADME, Microsome. The settings on record: read-out: Activity.

Sequence of CYP2D6 (P10635 whole entry): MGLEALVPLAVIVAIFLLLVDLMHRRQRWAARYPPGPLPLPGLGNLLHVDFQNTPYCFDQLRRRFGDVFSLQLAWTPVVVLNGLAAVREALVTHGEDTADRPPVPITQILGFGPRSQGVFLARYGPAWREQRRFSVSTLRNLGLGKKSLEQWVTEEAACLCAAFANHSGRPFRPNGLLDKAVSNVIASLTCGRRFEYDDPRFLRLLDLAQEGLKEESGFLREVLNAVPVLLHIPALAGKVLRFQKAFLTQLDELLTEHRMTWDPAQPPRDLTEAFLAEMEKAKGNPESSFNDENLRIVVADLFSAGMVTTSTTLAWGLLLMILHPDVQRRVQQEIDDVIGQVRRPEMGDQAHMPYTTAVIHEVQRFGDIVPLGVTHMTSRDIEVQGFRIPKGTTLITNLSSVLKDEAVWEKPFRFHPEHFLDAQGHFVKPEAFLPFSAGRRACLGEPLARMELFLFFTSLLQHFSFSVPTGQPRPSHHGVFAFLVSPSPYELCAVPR
Sequence of CYP2C19 (P33261 whole entry): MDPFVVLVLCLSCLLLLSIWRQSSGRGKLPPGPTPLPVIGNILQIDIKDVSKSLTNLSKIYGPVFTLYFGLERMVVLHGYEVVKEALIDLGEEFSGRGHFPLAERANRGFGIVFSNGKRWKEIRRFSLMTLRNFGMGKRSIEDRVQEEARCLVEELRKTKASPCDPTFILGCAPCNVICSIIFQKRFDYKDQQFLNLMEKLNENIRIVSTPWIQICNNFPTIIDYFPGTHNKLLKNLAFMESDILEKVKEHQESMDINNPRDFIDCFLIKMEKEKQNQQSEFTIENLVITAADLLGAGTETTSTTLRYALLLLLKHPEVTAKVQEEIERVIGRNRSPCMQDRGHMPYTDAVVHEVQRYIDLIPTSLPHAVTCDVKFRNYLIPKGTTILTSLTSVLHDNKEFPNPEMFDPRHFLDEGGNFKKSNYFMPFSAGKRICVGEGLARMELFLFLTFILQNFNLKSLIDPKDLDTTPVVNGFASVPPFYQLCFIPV
Sequence of CYP2C9 (P11712 whole entry): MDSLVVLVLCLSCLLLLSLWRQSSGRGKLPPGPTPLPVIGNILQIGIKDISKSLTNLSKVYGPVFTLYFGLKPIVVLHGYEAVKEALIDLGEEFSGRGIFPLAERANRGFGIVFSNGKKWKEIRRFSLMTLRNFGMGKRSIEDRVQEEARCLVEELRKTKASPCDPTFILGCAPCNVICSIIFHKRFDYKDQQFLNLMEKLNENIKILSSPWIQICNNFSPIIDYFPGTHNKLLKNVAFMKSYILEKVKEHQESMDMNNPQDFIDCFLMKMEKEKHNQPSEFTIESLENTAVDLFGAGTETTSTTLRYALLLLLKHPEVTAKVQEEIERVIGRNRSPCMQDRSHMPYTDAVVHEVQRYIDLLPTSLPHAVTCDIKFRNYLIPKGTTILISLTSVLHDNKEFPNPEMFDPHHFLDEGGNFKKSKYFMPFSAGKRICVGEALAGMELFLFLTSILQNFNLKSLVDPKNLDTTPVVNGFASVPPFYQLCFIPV
Sequence of CYP3A4 (P08684 whole entry): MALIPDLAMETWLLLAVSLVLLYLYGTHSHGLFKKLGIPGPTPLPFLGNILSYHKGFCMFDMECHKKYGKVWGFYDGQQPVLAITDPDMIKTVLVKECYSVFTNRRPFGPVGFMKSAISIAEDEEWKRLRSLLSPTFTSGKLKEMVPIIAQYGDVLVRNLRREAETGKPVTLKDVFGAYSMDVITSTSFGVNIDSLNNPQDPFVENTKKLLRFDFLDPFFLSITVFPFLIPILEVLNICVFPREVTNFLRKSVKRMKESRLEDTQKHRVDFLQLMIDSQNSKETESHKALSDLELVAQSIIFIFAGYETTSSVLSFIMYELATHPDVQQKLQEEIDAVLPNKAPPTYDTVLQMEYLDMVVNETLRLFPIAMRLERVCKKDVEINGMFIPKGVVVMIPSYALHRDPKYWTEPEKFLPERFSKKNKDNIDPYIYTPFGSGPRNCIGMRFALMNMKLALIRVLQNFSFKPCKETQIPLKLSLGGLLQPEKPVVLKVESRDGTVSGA
Sequence of CYP2E1 (P05181 whole entry): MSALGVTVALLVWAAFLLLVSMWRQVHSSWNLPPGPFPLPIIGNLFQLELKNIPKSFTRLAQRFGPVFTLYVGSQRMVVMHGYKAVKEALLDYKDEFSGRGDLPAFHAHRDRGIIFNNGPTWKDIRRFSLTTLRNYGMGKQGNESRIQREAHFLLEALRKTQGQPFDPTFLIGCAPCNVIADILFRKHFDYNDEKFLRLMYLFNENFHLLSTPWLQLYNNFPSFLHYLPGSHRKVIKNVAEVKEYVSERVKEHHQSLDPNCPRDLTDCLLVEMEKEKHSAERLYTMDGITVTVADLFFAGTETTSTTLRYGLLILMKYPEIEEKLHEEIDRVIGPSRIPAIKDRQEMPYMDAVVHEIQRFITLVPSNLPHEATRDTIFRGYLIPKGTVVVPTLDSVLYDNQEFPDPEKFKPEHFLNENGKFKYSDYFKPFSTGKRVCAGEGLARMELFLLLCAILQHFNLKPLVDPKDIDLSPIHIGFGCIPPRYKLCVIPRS
Sequence of Voltage-gated inwardly rectifying potassium channel KCNH2 (Q12809 whole entry): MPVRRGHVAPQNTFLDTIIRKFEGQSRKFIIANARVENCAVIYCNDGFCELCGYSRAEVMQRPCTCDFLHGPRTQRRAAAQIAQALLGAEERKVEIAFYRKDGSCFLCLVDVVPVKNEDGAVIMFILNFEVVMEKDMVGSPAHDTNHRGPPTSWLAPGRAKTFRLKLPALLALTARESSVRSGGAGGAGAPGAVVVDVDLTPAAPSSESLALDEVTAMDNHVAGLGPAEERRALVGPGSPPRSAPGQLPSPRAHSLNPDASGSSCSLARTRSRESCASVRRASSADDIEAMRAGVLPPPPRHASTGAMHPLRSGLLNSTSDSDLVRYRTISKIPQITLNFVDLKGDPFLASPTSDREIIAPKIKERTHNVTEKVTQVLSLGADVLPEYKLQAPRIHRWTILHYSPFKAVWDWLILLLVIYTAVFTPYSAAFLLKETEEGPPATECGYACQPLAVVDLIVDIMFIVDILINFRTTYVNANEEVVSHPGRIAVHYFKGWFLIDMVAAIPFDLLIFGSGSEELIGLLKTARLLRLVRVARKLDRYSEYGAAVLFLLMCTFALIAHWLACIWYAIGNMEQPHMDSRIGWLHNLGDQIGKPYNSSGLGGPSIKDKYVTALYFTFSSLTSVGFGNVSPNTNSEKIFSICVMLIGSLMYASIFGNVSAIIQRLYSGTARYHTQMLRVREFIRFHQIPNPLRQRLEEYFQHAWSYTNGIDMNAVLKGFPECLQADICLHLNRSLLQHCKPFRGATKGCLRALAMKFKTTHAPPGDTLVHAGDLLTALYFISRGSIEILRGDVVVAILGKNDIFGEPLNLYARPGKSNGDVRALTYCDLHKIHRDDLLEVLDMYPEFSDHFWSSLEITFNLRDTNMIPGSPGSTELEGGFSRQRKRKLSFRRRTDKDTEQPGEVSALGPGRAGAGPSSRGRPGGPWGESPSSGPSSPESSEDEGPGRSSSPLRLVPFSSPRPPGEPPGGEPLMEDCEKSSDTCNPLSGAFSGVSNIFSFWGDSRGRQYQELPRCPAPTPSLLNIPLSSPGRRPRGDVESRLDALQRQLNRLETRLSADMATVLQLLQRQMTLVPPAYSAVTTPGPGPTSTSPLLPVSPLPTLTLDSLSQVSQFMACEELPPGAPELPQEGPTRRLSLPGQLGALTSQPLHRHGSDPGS

As a reminder, the AUC(0-t) is the area under the concentration-time curve up to a stated or last time point. The term CL/F denotes clearance divided by bioavailability, as obtained after extravascular dosing. What is called half-life is how long it takes for the measured level to halve. One may read the Cmax as the peak of the concentration-time curve. For orientation: Tmax means the time from dosing to the highest level. In general, IC50 refers to the concentration at which inhibition is half-maximal. As to `C[C@@H](NC(=O)c1csc(-c2ccc(S(C)(=O)=O)cc2)n1)c1cn(-c2cc(C(F)(F)F)ccn2)nn1`, the area under the curve AUC(0-t) at 72 h in [1] turned out to be 103 µg·h/mL. The compound also gave an apparent clearance (CL/F) in data set [2] of 1.67 mL/min/kg. Besides, the Activity result in the data set with HEK293 [3] and with HEK293 [4] was “Non-toxic” throughout. Moreover, the half-life in data set [5] was > 120 min; in [8], 396 min; in data set [9] it was > 120 min. Further, the Cmax in data set [6] came out at 6610 ng/mL. The CLint scaled in [7] and in data set [10] was < 12 mL/min/kg throughout. Moreover, in [11], the Tmax came to 3 h. Moreover, on P2X purinoceptor 7, the concentration for half-maximal inhibition (IC50) stood at 168 nM.
On to `C[C@H](NC(=O)c1cnc(-c2ccc(S(C)(=O)=O)cc2)s1)c1cn(-c2cc(C(F)(F)F)ccn2)nn1`, for which the Activity entry in data set [12] and in [14] was “Non-toxic” throughout. Moreover, in data set [13], the Stability result was “Stable”. The area under the curve AUC(0-t) at 72 h in [1] came to 1160 µg·h/mL. Also, the half-life in [5] was > 120 min; in [8], 9700 min; in data set [9], > 120 min. For the same compound, the remaining at 2 h, 1 µM at CYP3A4, on CYP2C19, at CYP2C9, at CYP1A2, at CYP2D6 and at CYP2E1 was 100% each time. Besides, at CYP2A6, the remaining at 2 h, 1 µM was 100%. In data set [6], this compound yielded a maximum concentration (Cmax) of 19800 ng/mL. The fraction unbound at 6 h, 10 µM in data set [15] is 0.003. Moreover, the CLint scaled in data set [7] and in data set [10] was < 12 mL/min/kg each time. For the same compound, the IC50 is > 30 µM in data set [16] and 25.3 nM on P2X purinoceptor 7. In [11], the time to peak (Tmax) is 24 h.
In the case of `C[C@@H](NC(=O)c1cnc(-c2ccc(S(C)(=O)=O)cc2)s1)c1cn(-c2cc(C(F)(F)F)ccn2)nn1`, the Stability result in [13] is “Stable”. The AUC(0-t) at 72 h in data set [1] came to 86.5 µg·h/mL. In addition, in [2], the CL/F was 2.17 mL/min/kg. Besides, the half-life in data set [5] was > 120 min; in data set [8], 283 min; in data set [9] it was > 120 min. Moreover, the remaining at 2 h, 1 µM at CYP3A4, on CYP2C19, on CYP2C9, at CYP1A2, on CYP2D6 and on CYP2E1 was 84.2% in each case. Besides, the remaining at 2 h, 1 µM at CYP2A6 came to 84.2%. Also, the peak concentration (Cmax) in data set [6] stood at 6900 ng/mL. The fraction unbound at 6 h, 10 µM in data set [15] is 0.0213. The CLint scaled in [7] and in data set [10] was < 12 mL/min/kg each time. For the same compound, the Tmax in data set [11] is 2.33 h. Moreover, the IC50 on P2X purinoceptor 7 turned out to be 54.7 nM.

Source of the values: ChEMBL document CHEMBL6120956, “Discovery of a Potent, Orally Active, and Long-Lasting P2X7 Receptor Antagonist as a Preclinical Candidate for Delaying the Progression of Chronic Kidney Disease” (J Med Chem, 2024).
